Assay results as given in patent publication US5476966A, “Method for depletion of glutathione” (Cornell Research Foundation, Inc., priority 1995, dated 1995).
pKi: −log10 of the molar value.

Assays:
glutathione [1] = assay: Tissue glutathione levels after intraperitoneal administration of sulfoximines; format: in vivo, mouse; details: for % Decrease in glutathione / Glutathione level: 2 mmol/Kg i.p.
Method: Male mice (Swiss Webster) were fasted overnight (about 16 hr). L-3-methylbuthionine-SR-sulfoximine (3 mBSO; L-S-3-methylbutyl homocysteine-SR-sulfoximine; L-S-isopentyl homocysteine-SR-sulfoximine), L-buthionine-SR-sulfoximine(BSO; L-S-butyl homocysteine-SR-sulfoximine), L-2-methylbuthiomine-SR-sulfoximine (2 mBSO, L-S-2methylbutyl homocysteine-SR-sulfoximine), or saline (0.9% NaCl) were administered to mice at 2 mmol/Kg intraperitoneally (50 mM, Ph ^~ 7). At the times indicated, plasma and tissues were obtained and assayed for glutathione (GSH+1/2 GSSG) as described by Anderson, Methods in Enzymology, 1985, 113:548-555.

[2] = target: T1, γ-Glutamylcysteine Synthetase (Rattus norvegicus, UniProt P19468); assay: Inhibition of γ-glutamylcysteine synthetase (preincubation assay); format: biochemical; details: for pKi: 30 min preincubation, 22° C., read-out: Kiapp, Concentration for 50% Inhibition; for inhibition of γ-glutamylcysteine synthetase (in words): ranking compared with BSO
T1 construct: Rat kidney γ-Glutamylcysteine synthetase was purified from Sprague Dawley (Taconic Farms) rats; from tissue; host or cells: rat kidney (Sprague Dawley, Taconic Farms)
T1 sequence (P19468 1-637): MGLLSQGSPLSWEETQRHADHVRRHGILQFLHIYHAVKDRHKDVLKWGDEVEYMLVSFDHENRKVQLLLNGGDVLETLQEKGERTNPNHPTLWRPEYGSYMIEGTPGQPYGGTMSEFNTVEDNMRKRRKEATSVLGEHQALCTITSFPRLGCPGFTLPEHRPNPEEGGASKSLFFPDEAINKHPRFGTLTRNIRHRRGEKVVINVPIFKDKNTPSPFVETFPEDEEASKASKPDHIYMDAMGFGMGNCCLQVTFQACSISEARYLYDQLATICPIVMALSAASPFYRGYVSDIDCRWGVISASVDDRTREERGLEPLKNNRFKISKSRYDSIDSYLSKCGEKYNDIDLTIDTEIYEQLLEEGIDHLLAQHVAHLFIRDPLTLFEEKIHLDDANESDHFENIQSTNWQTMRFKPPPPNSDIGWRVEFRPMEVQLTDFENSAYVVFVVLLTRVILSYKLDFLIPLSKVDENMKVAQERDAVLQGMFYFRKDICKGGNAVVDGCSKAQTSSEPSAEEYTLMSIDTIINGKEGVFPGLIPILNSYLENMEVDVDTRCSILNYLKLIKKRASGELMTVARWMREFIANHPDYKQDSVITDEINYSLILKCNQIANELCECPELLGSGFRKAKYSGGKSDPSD
T1 sequence (P48508 1-274 partner): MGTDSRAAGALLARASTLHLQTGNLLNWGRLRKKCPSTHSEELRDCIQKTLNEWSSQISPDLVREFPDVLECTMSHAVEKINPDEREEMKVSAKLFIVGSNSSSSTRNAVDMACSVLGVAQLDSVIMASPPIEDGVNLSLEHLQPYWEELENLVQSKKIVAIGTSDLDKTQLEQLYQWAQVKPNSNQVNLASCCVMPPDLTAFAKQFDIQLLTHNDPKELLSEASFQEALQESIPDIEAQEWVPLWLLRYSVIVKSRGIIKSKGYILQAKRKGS
Method: Rat kidney γ-Glutamylcysteine synthetase was purified from Sprague Dawley (Taconic Farms) rats (Seelig., Methods in Enzymology, 1985, 113:379-390).
The preincubation assay of γ-glutamylcysteine synthetase is given below. γ-Glutamylcysteine synthetase (4.6 units) was added to a mixture (final volume, 50 μl) containing 100 mM Tris/HCl (pH 8.2), 5 mM ATP, 20 mM MgCl2, 0.2 mM EDTA, and the sulfoximine being evaluated. After incubation at 22° C. for 30 minutes, a 45 μl aliquot of the preincubation mixture was added to the assay as follows.
γ-Glutamylcysteine synthetase was assayed as follows (Griffith et al, J. Biological Chem., 1979, 254:1205-1210). The reaction mixture (final volume, 1.0 ml) contained 100 mM Tris/HCl (pH 8.2), 120 mM KCl, 5 mM phosphoenolpyruvate, 20 mM MgCl2, 10 mM sodium L-glutamate, 10 mM L-α-aminobutyric acid, 0.2 mM EDTA, 0.4 mM NADH, pyruvate kinase (10 IU), and lactate dehydrogenase (10 IU). The reaction (37° C.) was initiated by the addition of γ-glutamylcysteine synthetase and the oxidation of NADH, equivalent to ADP formation, was recorded at 340 nm.

[3] = Detection of compound in mouse bile; format: in vivo
glutathione [4] = assay: Tissue glutathione after oral administration of sulfoximines (Table 5); format: in vivo, mouse; details: 2 mmol/kg
Method: Male mice (Swiss Webster) were fasted overnight (about 16 hr.) L-buthionine-SR-sulfoximine (BSO, S-n-butyl homocysteine-SR-sulfoximine), L-S-cyclohexylmethyl homocysteine-SR-sulfoximine (CHMSO); L-S-2-ethylbutylhomocysteine-SR-sulfoximine (2 EtBSO, L-S-2-ethylbutyl homocysteine-SR-sulfoximine, or saline (0.9% NaCl) were administered to mice at 2 mmol/Kg by intubation (100 mM; pH about 1 with HCl (200 mM). At the times indicated, plasma and tissues were obtained and assayed for glutathione (GSH+1/2 GSSG) as described by Anderson, Methods in Enzymology, 1985, 113:548-555. (See Table 4 and 5.)

[5] = tested on: mouse L1210 leukemia cells; details: cited from earlier work

Row | SMILES | pKi [2] | % Decrease in glutathione (glutathione [1]; brain, 2 hr) [%] | Glutathione level (glutathione [1]; brain, 2 hr) [µmol/g] | % Decrease in glutathione (glutathione [1]; brain, 12 hr) [%] | Glutathione level (glutathione [1]; brain, 12 hr) [µmol/g] | % Decrease in glutathione (glutathione [1]; heart, 2 hr) [%] | Glutathione level (glutathione [1]; heart, 2 hr) [µmol/g] | % Decrease in glutathione (glutathione [1]; heart, 12 hr) [%] | Glutathione level (glutathione [1]; heart, 12 hr) [µmol/g] | % Decrease in glutathione (glutathione [1]; kidney, 2 hr) [%] | Glutathione level (glutathione [1]; kidney, 2 hr) [µmol/g] | % Decrease in glutathione (glutathione [1]; kidney, 12 hr) [%] | Glutathione level (glutathione [1]; kidney, 12 hr) [µmol/g] | % Decrease in glutathione (glutathione [1]; liver, 2 hr) [%] | Glutathione level (glutathione [1]; liver, 2 hr) [µmol/g] | % Decrease in glutathione (glutathione [1]; liver, 12 hr) [%] | Glutathione level (glutathione [1]; liver, 12 hr) [µmol/g] | % Decrease in glutathione (glutathione [1]; plasma, 2 hr) [%] | Glutathione level (glutathione [1]; plasma, 2 hr) [µM] | % Decrease in glutathione (glutathione [1]; plasma, 12 hr) [%] | also measured
1 | N=S(=O)(CC[C@H](N)C(=O)O)CC1CCCCC1 (stereo partly drawn) [CHMSO, L-S-cyclohexylmethyl homocysteine-SR-sulfoximine] | 5.42 | – | – | – | – | – | – | – | – | – | – | – | – | – | – | – | – | – | – | – | detection in mouse bile [3]: CHMSO was detected; decrease in brain glutathione levels (glutathione [4]; 12 hours, experimental error about 5%): no decrease; decrease in glutathione levels (cardio-toxicity) (glutathione [4]; 2 hours, mice): 8%; inhibition of γ-glutamylcysteine synthetase (in words) [2]: best inhibitors, about equal to BSO
2 | N[C@@H](Cc1ccc(N(CCCl)CCCl)cc1)C(=O)O [phenylalanine mustard] | – | – | – | – | – | – | – | – | – | – | – | – | – | – | – | – | – | – | – | – | dose needed to kill the most resistant cells versus most sensitive cell lines [5]: substantially higher; conversion of phenylalanine mustard by resistant cells ([5]; glutathione-dependent dehydrochlorination): converted phenylalanine mustard to a non-toxic hydroxy derivative

Now from value to molecule, other results behind:

Row | pKi [2] | SMILES | % Decrease in glutathione (glutathione [1]; brain, 2 hr) [%] | Glutathione level (glutathione [1]; brain, 2 hr) [µmol/g] | % Decrease in glutathione (glutathione [1]; brain, 12 hr) [%] | Glutathione level (glutathione [1]; brain, 12 hr) [µmol/g] | % Decrease in glutathione (glutathione [1]; heart, 2 hr) [%] | Glutathione level (glutathione [1]; heart, 2 hr) [µmol/g] | % Decrease in glutathione (glutathione [1]; heart, 12 hr) [%] | Glutathione level (glutathione [1]; heart, 12 hr) [µmol/g] | % Decrease in glutathione (glutathione [1]; kidney, 2 hr) [%] | Glutathione level (glutathione [1]; kidney, 2 hr) [µmol/g] | % Decrease in glutathione (glutathione [1]; kidney, 12 hr) [%] | Glutathione level (glutathione [1]; kidney, 12 hr) [µmol/g] | % Decrease in glutathione (glutathione [1]; liver, 2 hr) [%] | Glutathione level (glutathione [1]; liver, 2 hr) [µmol/g] | % Decrease in glutathione (glutathione [1]; liver, 12 hr) [%] | Glutathione level (glutathione [1]; liver, 12 hr) [µmol/g] | % Decrease in glutathione (glutathione [1]; plasma, 2 hr) [%] | Glutathione level (glutathione [1]; plasma, 2 hr) [µM] | % Decrease in glutathione (glutathione [1]; plasma, 12 hr) [%] | also measured
3 | 6.22 | CC(C)CCS(=N)(=O)CC[C@H](N)C(=O)O (stereo partly drawn) [3m BSO, L-S-3-methylbutyl homocysteine-SR-sulfoximine] | 10 | 2.09 | 10 | 1.92 | 16 | 1.13 | 57 | 0.55 | 81 | 0.73 | 53 | 1.69 | 77 | 1.26 | 22 | 3.86 | 64 | 10.6 | 30 | depletion of liver glutathione compared with BSO (glutathione [1]; liver, after 2 hr): more effective than BSO; Glutathione level (glutathione [1]; plasma, 12 hr): 19.2 µM; inhibition of γ-glutamylcysteine synthetase (in words) [2]: best inhibitors, about equal to BSO
4 | 4.74 | CCC(C)CS(=N)(=O)CC[C@H](N)C(=O)O (stereo partly drawn) [2m BSO, L-S-2methylbutyl homocysteine-SR-sulfoximine] | 5 | 2.19 | 0 | 2.18 | 14 | 1.15 | 8 | 1.19 | 25 | 2.08 | 0 | 4.10 | 18 | 4.49 | 0 | 5.05 | 15 | 25.2 | 8 | Glutathione level (glutathione [1]; plasma, 12 hr): 26.3 µM
5 | 4.36 | CCC(CC)CS(=N)(=O)CC[C@H](N)C(=O)O (stereo partly drawn) [2ETBSO, L-S-2-ethylbutyl homocysteine-SR-sulfoximine] | – | – | – | – | – | – | – | – | – | – | – | – | – | – | – | – | – | – | – | –
